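Cultured in 96-well plates, cells were exposed to test compound for 48 hours across five concentrations. GI50 marks 50% less growth. TGI marks complete inhibition of growth.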

Our source for the TGI and GI50 values is PubChem BioAssay (NCI).

What all share (test): growth of human tumour cells (NCI), 48 h
For assay [1], the system named is NCI-H23 lung.
The test system of assay [2] is DMS 114 small cell lung.
Assay [3] concerns HCT-116 colon.
Assay [4] has as its system EKVX NSCLC.
The subject of assay [5] is DMS 273 small cell lung.
Assay [6] concerns COLO 205 colon.
Assay [7] relates to SF-539 CNS.
Assay [8] relates to BT-549 breast.
In assay [9] the test system is MDA-MB-435.
Assay [10] concerns NCI/ADR-RES ovarian.

As to `CCCCCCCCC(=O)CCCCCCCCC(=O)O`, the TGI in assay [1] was 85.8 µM; in [2], 64.4 µM; in [3], 51 µM; in [4], 93.3 µM; in [5] it was 75.7 µM; in [6] it was 59.8 µM. In assay [7], the TGI is 42.5 µM.

With `CC12Oc3ccc4ccccc4c3C1c1c(ccc3ccccc13)O2` (stereo unspecified), the TGI in [1], in assay [2], in [3], in [4], in assay [5] and in [6] was > 100 µM throughout. For the same compound, the TGI in [7] is > 100 µM.

Regarding `CCC1(O)C(=O)OCc2c1cc1n(c2=O)Cc2c-1nc1ccccc1c2OC` (stereo unspecified), the TGI in assay [1] was 0.0749 µM; in assay [2] it was 1.26 µM; in [3], 1.21 µM; in assay [4], > 54.5 µM; in assay [5] it was 0.108 µM; in assay [6], 13.9 µM. In assay [7], the TGI worked out at 0.0414 µM.

Regarding `Cc1ccc(NC(=O)C2C(=O)C(=O)N(c3ccc(C)cc3)C2=O)cc1` (stereo unspecified), the TGI in [1], in assay [2], in [3], in [4], in assay [6] and in assay [7] was > 100 µM in each case.

Regarding `CCC[CH2][Sn]([CH2]CCC)([O]C(=O)c1cc(OC)c(OC)c(OC)c1)[O]C(=O)c1cc(OC)c(OC)c(OC)c1`, the GI50 is 0.437 µM in [1]; 0.404 µM in assay [2]; 1.37 µM in assay [3]; 1.95 µM in assay [4]; 1.35 µM in assay [5]; 1.22 µM in assay [6]. Moreover, the GI50 in [7] is 0.788 µM. Besides, the TGI in assay [1] is 1.56 µM; in assay [2], 1.54 µM; in assay [3], 2.66 µM; in assay [4], 4.69 µM; in [5], 2.95 µM; in assay [6], 2.59 µM. In assay [7], this compound displayed a TGI of 2.12 µM.

For the compound `[Ce+3].[Cl-].[O-]/N=C(\c1ccccc1)c1ccccn1.[O-]/N=C(\c1ccccc1)c1ccccn1.[O-]/N=C(\c1ccccc1)c1ccccn1`, the GI50 in assay [1] is 59.8 µM; in assay [2], 28.3 µM; in assay [3], 33.8 µM; in assay [4] it was 30.2 µM; in assay [5], 31.9 µM; in assay [6], 33.1 µM. Besides, the GI50 in assay [7] is 31 µM. Also, the TGI was > 100 µM in [1]; 85 µM in assay [2]; > 100 µM in [3]; > 100 µM in assay [4]; > 100 µM in assay [5]; > 100 µM in [6]. Further, the TGI in assay [7] turned out to be 91.9 µM.

Consider `Cn1c(O)c(C=N)c(=O)n(C)c1=O`, for which the TGI in assay [1], in [2] and in [4] was > 100 µM in each case.

Turning to `CCN(CC)CC(O)CNc1ccc(NCC(O)CCl)c2c1C(=O)c1ccccc1C2=O` (stereo unspecified), the TGI in [1] was found to be 18.1 µM; in assay [3], 14.5 µM; in assay [4], 29.5 µM; in assay [5], 13.6 µM; in [8], 23.5 µM; in assay [9], 18.6 µM. The TGI in assay [6] is 21.6 µM; in [10], 17.3 µM; in assay [7], 19.1 µM.

Turning to `Cc1cc(=O)[nH]c(CNC(=O)c2cccc3ccccc23)n1`, the TGI in assay [1], in [3], in assay [4], in [5], in assay [6] and in [7] was > 100 µM throughout.

Turning to `O=S1(=O)COc2ccccc2-c2ncncc21`, the TGI in assay [1], in [2], in assay [3], in assay [4], in assay [6] and in assay [7] was > 100 µM in each case.

`Cc1ccccc1NC(=O)N/C(N)=N/c1nc2ccccc2s1`: the GI50 is 0.209 µM in assay [1]; 0.0456 µM in assay [3]; 0.128 µM in assay [8]; 0.0208 µM in assay [9]; 0.0514 µM in assay [6]; 0.0372 µM in assay [10]. In addition, the GI50 in [7] is 0.041 µM. Also, the TGI is > 100 µM in assay [1]; > 100 µM in [4]; 0.0553 µM in assay [9]; 4.28 µM in assay [6]; 5.84 µM in assay [10]; 0.725 µM in assay [7].

Take `COC(=O)C1=C(C(=O)Nc2cccnc2)C2OC1(C(Cc1ccccc1)Oc1ccccc1)C1OC21` (stereo unspecified): the GI50 in [1] was 12.3 µM; in assay [3] it was 2.01 µM; in assay [4], 11.8 µM; in assay [8] it was 3.43 µM; in assay [9], 3.79 µM; in [6], 1.73 µM. Further, the GI50 was 18.8 µM in [10] and 7.04 µM in assay [7]. The TGI in assay [1] was 29.1 µM; in [3], 4.23 µM; in assay [4], 27.2 µM; in assay [8], 12.8 µM; in assay [9], 13.6 µM; in [6], 3.29 µM. In addition, the values for the TGI in [10] and in assay [7] were 56.5 µM and 19.8 µM, respectively.

As for `Clc1ccc(-c2nc(-c3c[nH]c4ncccc34)cs2)cc1`, the GI50 in assay [1] was 97.7 µM; in [3] it was 52.9 µM; in assay [4], 0.582 µM; in assay [8], > 100 µM; in [9], > 100 µM; in assay [6], > 100 µM. Besides, the values for the GI50 in assay [10] and in assay [7] were > 100 µM and 35.7 µM, respectively. Further, the TGI in assay [1], in assay [3], in [4], in [8], in [9] and in assay [6] was > 100 µM each time. Moreover, the TGI in assay [10] and in assay [7] was > 100 µM throughout.

As to `S=c1cn[nH]c2ccc(Br)cc12`, the TGI in assay [1] is > 100 µM; in assay [3], > 100 µM; in [4], 75.3 µM; in assay [8] it was > 100 µM; in assay [9], > 100 µM; in [6], > 100 µM. Further, the TGI in [10] and in assay [7] was > 100 µM each time.

With `Nc1nn(C(=O)Nc2ccc(Cc3ccccc3)cc2)c2ccc(Cl)cc12`, the GI50 was 5.72 µM in [1]; 0.354 µM in assay [3]; 5.85 µM in assay [4]; 12.4 µM in [8]; 0.138 µM in assay [9]; 1.92 µM in [6]. Moreover, the GI50 in assay [10] was 7.89 µM; in [7], 1.29 µM. Moreover, the TGI was > 82.7 µM in assay [1]; 24.2 µM in assay [3]; 98.8 µM in [4]; > 66.3 µM in assay [8]; > 100 µM in assay [9]; 28.9 µM in assay [6]. Also, the results for the TGI in [10] and in [7] were 51.6 µM and 7.66 µM, respectively.

On to `CCS(=O)(=O)c1ccc(OC)c(Nc2ncc(-c3cccc(-c4ccccc4F)c3)o2)c1`, for which the GI50 in assay [1] is > 23.8 µM; in assay [3], > 22.9 µM; in assay [4], 7.89 µM; in assay [8] it was > 22.2 µM; in assay [9] it was > 25 µM; in assay [6] it was > 20.1 µM. For the same compound, the GI50 is 15.4 µM in [10] and 7.81 µM in assay [7]. Also, the TGI in assay [1], in assay [3], in [4], in [8], in [9] and in [6] was > 25 µM throughout. Further, the TGI in assay [10] and in assay [7] was > 25 µM in each case.

For the compound `COc1c(Nc2ncc(Cl)c(N[C@@H]3[C@H]4C=CC(C4)[C@@H]3C(N)=O)n2)ccc2c1CC[C@@H](N1CCOCC1)CC2`, the GI50 in assay [1] was 6.02 µM; in assay [3] it was 2.52 µM; in [4] it was 1.3 µM; in assay [8], 3.66 µM; in assay [9], 2.72 µM; in assay [6], 1.74 µM. Further, the GI50 is 4.58 µM in assay [10] and 2.3 µM in [7]. In addition, the TGI was 24.7 µM in [1]; 10.3 µM in [3]; 10.2 µM in assay [4]; 14.8 µM in [8]; 15.7 µM in assay [9]; 5.5 µM in assay [6]. Besides, the TGI came to 24.4 µM in [10] and 8.01 µM in assay [7].

Take `O=C1OCC2=C1C(c1ccccc1)c1cc3c(cc1N2CCO)CCC3` (stereo unspecified): the GI50 is 0.106 µM in assay [1]; 0.0857 µM in [3]; 1.16 µM in assay [4]; 0.223 µM in [8]; 0.0429 µM in [9]; 0.0854 µM in [6]. In addition, the GI50 in assay [10] was 0.0521 µM; in [7], 0.0732 µM. For the same compound, the TGI is > 9.91 µM in assay [1]; 5.42 µM in assay [3]; > 25 µM in [4]; > 25 µM in assay [8]; 0.129 µM in [9]; 0.331 µM in assay [6]. In addition, the TGI in assay [10] turned out to be 0.139 µM; in [7], 0.966 µM.

Turning to `Cc1cc(=O)cc2sc3cc(Cl)ccc3nc1-2`, the TGI turned out to be 42.8 µM in [1]; 28.7 µM in assay [3]; 25 µM in assay [4]; 24.6 µM in assay [5]; 53.7 µM in assay [6]; 26.1 µM in [7].

For `CC1=C(C)C(=O)c2c(cc3c4ccccc4ccn23)C1=O`, the TGI in assay [1], in [2], in assay [4], in assay [5], in assay [6] and in assay [7] was > 100 µM throughout.

As for `C[C@@]12CCC[C@@](C)(C(=O)O)C1CC[C@]13C=C(CO)[C@](O)(CCC12)C3` (stereo partly specified), the GI50 in assay [1], in [3], in [4], in assay [8], in assay [9] and in assay [6] was > 100 µM throughout. Besides, the GI50 in assay [10] and in [7] was > 100 µM each time. Moreover, the TGI in [1], in [3], in assay [4], in assay [8], in assay [9] and in assay [6] was > 100 µM throughout. The TGI in assay [10] and in assay [7] was > 100 µM each time.

`C=CCOC1=C2CC[C@H](O)[C@@]2(C)CCC1=O`: the TGI in assay [2], in assay [3], in [4], in assay [5], in assay [6] and in assay [7] was > 100 µM throughout.

Take `COC1OC(COCc2ccc(Cl)cc2)C(OCc2ccc(Cl)cc2)C1O` (stereo unspecified): the TGI was determined as 31.9 µM in [1]; 32.8 µM in assay [2]; 46.3 µM in [4]; 31.7 µM in assay [5]; 34.3 µM in assay [6]; 30.3 µM in assay [7].

As for `O=C(CC(=O)C(=O)CC(=O)OCc1ccccc1)OCc1ccccc1`, the TGI in [1], in [2], in [3], in assay [4], in assay [6] and in [7] was > 100 µM each time.

For `NC(Cc1cc(Br)c(O)c(Br)c1)C(=O)O` (stereo unspecified), the TGI in [1], in assay [3], in [4], in [8], in assay [9] and in [6] was > 100 µM throughout. Also, the TGI in assay [10] and in assay [7] was > 100 µM throughout.

As for `S=C(Nc1ccc(-c2nc3ccccc3s2)cc1)Nc1ccccn1`, the GI50 is 25.7 µM in assay [1]; 21.5 µM in [3]; 12.2 µM in assay [4]; 14.9 µM in assay [8]; 28.4 µM in assay [9]; 18.9 µM in assay [6]. Besides, the GI50 in assay [10] is 24.6 µM; in assay [7] it was 37.8 µM. Also, the TGI in assay [1] is 70.6 µM; in [3], 55.5 µM; in [4] it was > 50.1 µM; in [8], > 100 µM; in assay [9], 97.2 µM; in [6], 42.3 µM. The TGI in [10] was 66.6 µM; in assay [7], > 100 µM.
